Measurements taken from publication PMC3430621, “HPLC–MS/MS Analysis of a Traditional Chinese Medical Formulation of Bu-Yang-Huan-Wu-Tang and Its Pharmacokinetics after Oral Administration to Rats” (PLoS ONE, 2012).
Where two headings read alike, the source gives them in different places.

Experiments:
[1] = Pharmacokinetics in conscious freely moving rats after oral administration of BYHWT extract (HPLC-MS/MS of plasma); assay type: in vivo, Sprague-Dawley rats
Text: The protocol listed below has been reviewed and approved by the Institutional Animal Care and Use Committee (IACUC; approval number 1010409) by the Institutional Animal Experimentation Committee of the National Yang-Ming University. Male pathogen-free Sprague-Dawley rats (250±50 g body weight) were obtained from the Laboratory Animal Center of National Yang Ming University. The animals had free access to food (Laboratory rodent diet 5P14, PMI Feeds, Richmond, IN, USA) and water was allowed at all times. All animal experiments followed the National Yang-Ming University guidelines and procedures for the care of laboratory animals. […] Experimental rats were initially anesthetized with pentobarbital (50 mg/kg, i.p.), and polyethylene tubing was implanted in the right jugular vein for blood sampling. The tube crossed the subcutaneous tissue and was fixed at its exit from the dorsal neck region. The patency tubing was maintained by filling with heparinized saline (20 units/mL). After surgery, the rats were placed in experimental cages and allowed to recuperate for one day. The rats were kept fasted for 12 h and water were available ad libitum before the BYHWT administration. […] In our study, the dose of BYHWT (10 g/kg) was appropriate for oral administration in rats. […] The condensed blood collection in the absorption phase is to figure out the maximum concentration and the time when it reaches the maximum concentration. The time points in the elimination phase are not close. This strategy is commonly used in the pharmacokinetic studies but the total blood consumption should not be over 20% of body blood. In these experimental rats, the total blood sampling volume is within 20% during 12 h. Plasma was separated by centrifuging the blood sample at 6000 rpm for 10 min at 4°C. […] The samples were vortexed and centrifuged at 16,100×g for 10 min. In our micro-analysis, less than 200 μL is needed. Actually, the collected blood volume is around 120-150 μL for each time point. After centrifugation, the plasma samples (50 μL) were vortex-mixed with 100 μL of acetonitrile. The supernatants were collected and filtered. Around 20 μL aliquot of the supernatants was transferred into the vial for analysis by HPLC-MS/MS system. The acetonitrile but not the real sample was used in the needle pre-wash standard procedure [19]. The LC-MS/MS system consisted of an Agilent 1100 series LC with automatic liquid chromatographic sampler, injector, bi-pump and degasser; and Applied Biosystems/MDS Sciex API 3000 tandem quadrupole mass spectrometry equipped with electrospray ionization (ESI) interface using the following parameters: nebulizer gas (NEB):10, curtain gas (CUR): 7, collisionally activated dissociation gas (CAD): 12, ionspray voltage (IS): 5000 V, turbo ionspray temperature (TEM): 450°C. Nitrogen was used in all cases. The mass spectrometer was operated in the positive ion detection mode. […] The following linear gradient program was applied to the analyte with the mobile phase consisting of methanol (0.1% formic acid, solvent A) and NH4OAc (0.1% formic acid, solvent B): 0-1 min: 30-70% A; 1-2 min 70-90%; 2-8 min: 90-90%; 8-9 min: 90-30%, 9-18 min: 30-30%, v/v. […] The flow rate was maintained at […]. Pharmacokinetic parameters including maximum plasma concentration (Cmax), time to reach the maximum concentrations (Tmax), half-life (t1/2), area under concentration-time curve (AUC) and oral clearance (CL) were estimated by a non-compartmental analysis using the pharmacokinetic program, WinNonlin Standard Edition Version 1.1 (Scientific Consulting, Apex, NC, USA). All results were expressed as average mean ± standard deviation (S.D.). ANOVA was used to evaluate differences, and a value of P<0.05 was taken as statistically significant.

[2] = Stability of the analytes in rat plasma samples (freeze-thaw, short-term, long-term, autosampler); assay type: in vitro ADME; details: n = 3; for Stability (%) Autosampler stability: autosampler 8°C 12 h; for Stability (%) Short-term stability: room temperature 6 h; for Stability (%) Freeze-thaw stability: three freeze-thaw cycles; for Stability (%) Long-term stability: −20°C 14 days
Procedure: Stability was also assessed using the low, medium and high concentrations of analytes. Freeze-thaw stability was assessed over three freeze-thaw cycles. Short-term stability was determined by placing the samples at room temperature for 6 h. Long-term stability was evaluated by analyzing samples kept at −20°C for 14 days. Autosampler stability was determined by maintaining the samples at the autosampler temperature (8°C) for 12 h. All stabilities were calculating as the ratio of average concentration and freshly prepared samples.

[3] = male, Sprague-Dawley, po, rat plasma, BYHWT extract 10 g/kg p.o., n = 6, read-out: Cmax
[4] = male, Sprague-Dawley, po, rat plasma, BYHWT extract 10 g/kg p.o., n = 6, read-out: Tmax (converted)
[5] = male, Sprague-Dawley, po, rat plasma, BYHWT extract 10 g/kg p.o., n = 6, read-out: t1/2
[6] = rat plasma, BYHWT extract 10 g/kg p.o.
[7] = male, Sprague-Dawley, rat, in vivo, po, 10 g/kg

SMILES | Cmax [1, 3] | Tmax [1, 4] | half-life [1, 5] | absorption phase in the plasma concentration-time curve [1, 6] | Stability (%) Autosampler stability ([2]; concentration 10 (µg/mL)) | Stability (%) Short-term stability ([2]; concentration 10 (µg/mL)) | Stability (%) Freeze-thaw stability ([2]; concentration 10 (µg/mL)) | Stability (%) Long-term stability ([2]; concentration 10 (µg/mL)) | Stability (%) Autosampler stability ([2]; concentration 100 (µg/mL)) | Stability (%) Short-term stability ([2]; concentration 100 (µg/mL)) | Stability (%) Freeze-thaw stability ([2]; concentration 100 (µg/mL)) | Stability (%) Long-term stability ([2]; concentration 100 (µg/mL)) | Stability (%) Autosampler stability ([2]; concentration 1000 (µg/mL)) | Stability (%) Short-term stability ([2]; concentration 1000 (µg/mL)) | Stability (%) Freeze-thaw stability ([2]; concentration 1000 (µg/mL)) | Stability (%) Long-term stability ([2]; concentration 1000 (µg/mL)) | Stability (%) Autosampler stability ([2]; concentration 1 (µg/mL)) | Stability (%) Short-term stability ([2]; concentration 1 (µg/mL)) | Stability (%) Freeze-thaw stability ([2]; concentration 1 (µg/mL)) | Stability (%) Long-term stability ([2]; concentration 1 (µg/mL)) | other results
COc1ccc(-c2coc3cc(O)ccc3c2=O)cc1O [Calycosin, calycosin] | 1230 ± 171 ng/mL | 40 min | 75 ± 11 min | single and plateau absorption phase | −3.5±11% | 1.4±11% | 9.6±4.7% | 2.5±5.7% | −2.2±3.5% | 14±12% | 8.6±3.8% | 17±5.2% | 7.1±4.9% | 13±7.3% | 2.9±4.5% | 21±12% | – | – | – | – | AUC ([1]; rat plasma, BYHWT extract 10 g/kg p.o., n = 6): 5130 ± 1220 ng·h/mL
COc1ccc(-c2coc3cc(O)ccc3c2=O)cc1 [Formononetin, formononetin] | 98 ± 17 ng/mL | 38 min | 175 ± 13 min | single and plateau absorption phase | −13±4.1% | −3.4±12% | −4.9±3.8% | −13±5.5% | −4.6±11% | 1.1±10% | 5.8±10% | −12±7.5% | 0.8±12% | 1.5±10.4% | −3.5±6.0% | 1.0±6.4% | – | – | – | – | –
COc1ccc(-c2coc3cc(O[C@@H]4O[C@H](CO)[C@@H](O)[C@H](O)[C@H]4O)ccc3c2=O)cc1 [Ononin, ononin] | 19 ± 4.5 ng/mL | 35 min | 134 ± 9.6 min | single and plateau absorption phase | −7.0±1.4% | −12±4.6% | −2.5±7.3% | −6.2±2.9% | 8.1±3.8% | 6.7±2.1% | 4.2±1.3% | 3.2±3.9% | – | – | – | – | 4.7±7.7% | 12±6.3% | 3.9±6.4% | −7.2±10% | –
CC(C)(O)[C@@H]1CC[C@](C)([C@H]2[C@@H](O)C[C@@]3(C)[C@@H]4C[C@H](O[C@@H]5O[C@H](CO)[C@@H](O)[C@H](O)[C@H]5O)[C@H]5C(C)(C)[C@@H](O[C@@H]6OC[C@@H](O)[C@H](O)[C@H]6O)CC[C@@]56C[C@@]46CC[C@]23C)O1 [Astragaloside IV, astragaloside IV] | – | – | – | double-peak absorption phase | 3.3% | 4.7±6.2% | −4.1±3.4% | −6.3±8.8% | −8.6±12% | 1.6±9.1% | 6.1±0.4% | 2.1±13.5% | – | – | – | – | 3.8±9.8% | 12±15% | −3.2±5.0% | −17±5.3% | Cmax ([1]; male, Sprague-Dawley, in vivo, po, rat plasma, BYHWT extract 10 g/kg p.o., n = 6, read-out: Cmax): 100 ± 16 ng/mL; Tmax ([1]; male, Sprague-Dawley, in vivo, po, rat plasma, BYHWT extract 10 g/kg p.o., n = 6, read-out: Tmax (converted)): 35 min; half-life ([1]; male, Sprague-Dawley, in vivo, po, rat plasma, BYHWT extract 10 g/kg p.o., n = 6, read-out: t1/2): 170 ± 8.3 min
CC(=O)O[C@H]1[C@H](O[C@H]2CC[C@]34C[C@]35CC[C@]3(C)[C@@H]([C@@]6(C)CC[C@@H](C(C)(C)O)O6)[C@@H](O)C[C@@]3(C)[C@@H]5C[C@H](O[C@@H]3O[C@H](CO)[C@@H](O)[C@H](O)[C@H]3O)[C@H]4C2(C)C)OC[C@@H](O)[C@@H]1O [Astragaloside II, astragaloside II] | – | – | – | – | −0.3±11% | −1.3±1.9% | −2.3±0.8% | −0.8±16% | −5.4±13% | −6.8±5.7% | 0.4±1.2% | 1.7±21% | – | – | – | – | 13±10% | 2.4±12% | 4.4±3.6% | 8.7±10% | Cl ([1]; male, Sprague-Dawley, rat, in vivo, po): 129 ± 15 mL/min/kg; Cmax [1, 7]: 30 ± 4.9 ng/mL; Tmax [1, 7]: 37 min; half-life [1, 7]: 212 ± 14 min; AUC ([1]; rat, in vivo, po, 10 g/kg): 190 ± 38.3 ng·h/mL
O=c1[nH]cnc2nc[nH]c12 [hypoxanthine] | – | – | – | – | – | – | – | – | – | – | – | – | – | – | – | – | – | – | – | – | observed in rat plasma after oral administration of BYHWT ([1]; preliminary experiments): could not be observed
